{"source": "patent US20240309014A1", "about": "“MACROCYCLIC COMPOUNDS AND USES THEREOF” (President and Fellows of Harvard College, priority 2017, published 2024)", "key": {"[1]": {"test_system": "human lung cancer cell line NCI-H23", "assay": "NCI-H23 growth inhibition assay", "format": "cell-based", "details": "NCI-H23, 72 h, 3 days incubation, CellTiter-Glo", "description": "(§1) In this assay, the growth inhibitory activities of Compound D-6 (Example 26), E-2, G-4, H-2, 1-2, J-1, K-2, L-6, M-3, and N-1 in a human lung cancer cell line NCI-H23 were measured. NCI-H23 cells were maintained in RPM-1640 (Wako Pure Chemical Industries, Ltd., 187-02021) medium containing 10% fetal bovine serum (FBS: Sigma, 172012), and penicillin and streptomycin (Wako Pure Chemical Industries, Ltd., 168-23191) in a 5% CO2 incubator (37° C.). To each well of a 96 well plate (Becton, Dickinson and Company, 353219), 75 μL of NCI-H23 cell suspension adjusted to a concentration of 4×10^4 cells/mL with the culture medium was added, and the cells were incubated overnight in a 5% CO2 incubator (37° C.). On the next day, 25 μL of each compound in three-fold dilution series suspended in the culture medium was added to each well, and the resultant was incubated for 3 days in a 5% CO2 incubator (37° C.). Then, cell viability was determined by CellTiter-Glo® Luminescent Cell Viability Assay (Promega) with EnVision 2103 Multilabel Reader (Perkin-Elmer, Wellesley, MA). Value of the wells containing cells without adding the test substance was defined as 100% and the value of the wells containing no cells was defined as 0%. The concentration of the test substance necessary for inhibiting the cell growth by 50% (i.e., an IC50 value) was calculated, and summarized in Table 14."}, "[2]": {"test_system": "human breast cancer cell line HCC1954", "assay": "HCC1954 growth inhibition assay (Test Example 24)", "format": "cell-based", "details": "HCC1954, 72 h, 3 days incubation, CellTiter-Glo", "description": "In this assay, the growth inhibitory activities of Compound D-6 (Example 26), E-2, G-4, H-2, I-2, J-1, K-2, L-6, M-3, and N-1 in a human breast cancer cell line HCCl954 were measured. HCC1954 cells were maintained in RPMI-1640 medium modified to contain 2 mM L-glutamine, 10 mM HEPES, 1 mM sodium pyruvate, 4500 mg/L glucose, and 1500 mg/L sodium bicarbonate (ATCC 30-2001) containing 10% fetal bovine serum (FBS: Sigma, 172012), and penicillin and streptomycin (Wako Pure Chemical Industries, Ltd., 168-23191) in a 5% CO2 incubator (37° C.). To each well of a 96 well plate (Becton, Dickinson and Company, 353219), 75 μL of HCC1954 cell suspension adjusted to a concentration of 4×10^4 cells/mL with the culture medium was added, and the cells were incubated overnight in a 5% CO2 incubator (37° C.). On the next day, 25 μL of each compound in three-fold dilution series suspended in the culture medium was added to each well, and the resultant was incubated for 3 days in a 5% CO2 incubator (37° C.). Then, cell viability was determined by CellTiter-Glo® Luminescent Cell Viability Assay (Promega) with EnVision 2103 Multilabel Reader (Perkin-Elmer, Wellesley, MA). Value of the wells containing cells without adding the test substance was defined as 100% and the value of the wells containing no cells was defined as 0%. The concentration of the test substance necessary for inhibiting the cell growth by 50% (i.e., an IC50 value) was calculated, and summarized in Table 14."}, "[3]": {"test_system": "MES-SA cells", "assay": "MES-SA growth inhibition assay", "format": "cell-based", "details": "Homo sapiens, 72 h, 3 days incubation, CellTiter-Glo, read-out: Cell growth inhibition IC50 (nM) MES-SA", "description": "as §1, with “MES-SA” for “NCI-H23”"}, "[4]": {"details": "in vitro and in vivo; cited from earlier work"}, "[5]": {"details": "in comparison with Halichondrin B; cited from earlier work"}, "[6]": {"test_system": "HSC-2-Luc inoculated into tongue", "assay": "HSC-2 orthotopic transplantation mouse model", "format": "in vivo, nude mice", "details": "Compound (1) 0.09 mg/kg"}}, "data": [{"smiles": "C=C1C[C@@H]2CC[C@@]34CC5O[C@H]6[C@@H](O3)[C@H]3O[C@H](CC[C@@H]3O[C@H]6C5O4)CC(=O)O[C@@H]3[C@@H](C)[C@@H]4O[C@@H]5C[C@]6(C[C@@H]7O[C@]8(C[C@H](C)[C@@H]9O[C@H](CO)[C@H](O)C[C@@H]9O8)C[C@H](C)[C@@H]7O6)O[C@@H]5C[C@@H]4O[C@H]3C[C@H]3O[C@@H](CC[C@@H]1O2)C[C@@H](C)C3=C", "note": "[Compound D-6]", "values": [{"measurement": "IC50", "setting": "[1]", "result": 0.022, "unit": "nM"}, {"measurement": "IC50", "setting": "[2]", "result": 0.0104, "unit": "nM"}, {"measurement": "IC50", "setting": "[3]", "result": 0.0138, "unit": "nM"}]}, {"smiles": "C=C1C[C@@H]2CC[C@@]34C[C@]5(O)O[C@H]6[C@@H](O3)[C@H]3O[C@H](CC[C@@H]3O[C@H]6C5O4)CC(=O)O[C@@H]3[C@@H](C)[C@@H]4O[C@@H]5C[C@]6(C[C@@H]7O[C@]8(C[C@H](C)[C@@H]9O[C@H](CCO)[C@H](O)C[C@@H]9O8)C[C@H](C)[C@@H]7O6)O[C@@H]5C[C@@H]4O[C@H]3C[C@H]3O[C@@H](CC[C@@H]1O2)C[C@@H](C)C3=C", "note": "[Compound J-1]", "values": [{"measurement": "IC50", "setting": "[1]", "result": 0.00992, "unit": "nM"}, {"measurement": "IC50", "setting": "[2]", "result": 0.00308, "unit": "nM"}, {"measurement": "IC50", "setting": "[3]", "result": 0.0102, "unit": "nM"}]}, {"smiles": "C=C1C[C@@H]2CC[C@@]34CC5O[C@H]6[C@@H](O3)[C@H]3O[C@H](CC[C@@H]3O[C@H]6C5O4)CC(=O)O[C@@H]3[C@@H](C)[C@@H]4O[C@@H]5C[C@]6(C[C@@H]7O[C@]8(C[C@H](C)[C@@H]9O[C@H]([C@@H](O)CCN)C[C@@H]9O8)C[C@H](C)[C@@H]7O6)O[C@@H]5C[C@@H]4O[C@H]3C[C@H]3O[C@@H](CC[C@@H]1O2)C[C@@H](C)C3=C", "note": "[Compound N-1]", "values": [{"measurement": "IC50", "setting": "[1]", "result": 1.53, "unit": "nM"}, {"measurement": "IC50", "setting": "[2]", "result": 0.08, "unit": "nM"}, {"measurement": "IC50", "setting": "[3]", "result": 2.88, "unit": "nM"}]}, {"smiles": "C=C1C[C@@H]2CC[C@@]34C[C@H]5O[C@H]6[C@@H](O3)[C@H]3O[C@H](CC[C@@H]3O[C@H]6[C@H]5O4)CC(=O)O[C@@H]3[C@@H](C)[C@@H]4O[C@@H]5C[C@]6(C[C@@H]7O[C@]8(C[C@H](C)[C@@H]9O[C@H](CCN)[C@H](O)C[C@@H]9O8)C[C@H](C)[C@@H]7O6)O[C@@H]5C[C@@H]4O[C@H]3C[C@H]3O[C@@H](CC[C@@H]1O2)C[C@@H](C)C3=C", "note": "[Compound G-4]", "values": [{"measurement": "IC50", "setting": "[1]", "result": 0.136, "unit": "nM"}, {"measurement": "IC50", "setting": "[2]", "result": 0.0335, "unit": "nM"}, {"measurement": "IC50", "setting": "[3]", "result": 0.326, "unit": "nM"}]}, {"smiles": "C=C1C[C@@H]2CC[C@@]34C[C@H]5O[C@H]6[C@@H](O3)[C@H]3O[C@H](CC[C@@H]3O[C@H]6[C@H]5O4)CC(=O)O[C@@H]3[C@@H](C)[C@@H]4O[C@@H]5C[C@]6(CC7O[C@@]8(C[C@H](C)C7O6)C[C@H](C)[C@@H]6O[C@H](CC(=O)O)[C@H](O)C[C@@H]6O8)O[C@@H]5CC4O[C@H]3C[C@H]3O[C@@H](CC[C@@H]1O2)C[C@@H](C)C3=C", "note": "(stereo partly shown) [Norhalichondrin B]", "values": [{"measurement": "activity relative to Halichondrin B", "setting": "[4]", "result": "much weaker than Halichondrin B"}]}, {"smiles": "C=C1C[C@@H]2CC[C@@]34CC5O[C@H]6[C@@H](O3)[C@H]3O[C@H](CC[C@@H]3O[C@H]6C5O4)CC(=O)O[C@@H]3[C@@H](C)[C@@H]4O[C@@H]5C[C@]6(C[C@@H]7O[C@]8(C[C@H](C)[C@@H]9O[C@H](CCOC)[C@H](O)C[C@@H]9O8)C[C@H](C)[C@@H]7O6)O[C@@H]5C[C@@H]4O[C@H]3C[C@H]3O[C@@H](CC[C@@H]1O2)C[C@@H](C)C3=C", "note": "[Compound I-2]", "values": [{"measurement": "IC50", "setting": "[1]", "result": 0.103, "unit": "nM"}, {"measurement": "IC50", "setting": "[2]", "result": 0.00624, "unit": "nM"}, {"measurement": "IC50", "setting": "[3]", "result": 0.057, "unit": "nM"}]}, {"smiles": "C=C1C[C@@H]2CC[C@@]34C[C@@]5(O)O[C@H]6[C@@H](O3)[C@H]3O[C@H](CC[C@@H]3O[C@H]6[C@H]5O4)CC(=O)O[C@@H]3[C@@H](C)[C@@H]4O[C@@H]5C[C@]6(C[C@@H]7O[C@]8(C[C@H](C)[C@@H]9O[C@H]([C@@H](O)C[C@@H](O)CN)C[C@@H]9O8)C[C@H](C)[C@@H]7O6)O[C@@H]5C[C@@H]4O[C@H]3C[C@H]3O[C@@H](CC[C@@H]1O2)C[C@@H](C)C3=C", "note": "[Compound L-6]", "values": [{"measurement": "IC50", "setting": "[1]", "result": 6.81, "unit": "nM"}, {"measurement": "IC50", "setting": "[2]", "result": 0.269, "unit": "nM"}, {"measurement": "IC50", "setting": "[3]", "result": 2.79, "unit": "nM"}]}, {"smiles": "C=C1C[C@@H]2CC[C@@]34CC5O[C@H]6[C@@H](O3)[C@H]3O[C@H](CC[C@@H]3O[C@H]6C5O4)CC(=O)O[C@@H]3[C@@H](C)[C@@H]4O[C@@H]5C[C@]6(C[C@@H]7O[C@]8(C[C@H](C)[C@@H]9O[C@H](CCO)[C@H](O)C[C@@H]9O8)C[C@H](C)[C@@H]7O6)O[C@@H]5C[C@@H]4O[C@H]3C[C@H]3O[C@@H](CC[C@@H]1O2)C[C@@H](C)C3=C", "note": "[Compound E-2]", "values": [{"measurement": "IC50", "setting": "[1]", "result": 0.595, "unit": "nM"}, {"measurement": "IC50", "setting": "[2]", "result": 0.0805, "unit": "nM"}, {"measurement": "IC50", "setting": "[3]", "result": 0.856, "unit": "nM"}]}, {"smiles": "C=C1C[C@@H]2CC[C@@]34C[C@@]5(O)O[C@H]6[C@@H](O3)[C@H]3O[C@H](CC[C@@H]3O[C@H]6[C@H]5O4)CC(=O)O[C@@H]3[C@@H](C)[C@@H]4O[C@@H]5C[C@]6(C[C@@H]7O[C@]8(C[C@H](C)[C@@H]9O[C@H]([C@@H](O)C[C@@H](O)CO)C[C@@H]9O8)C[C@H](C)[C@@H]7O6)O[C@@H]5C[C@@H]4O[C@H]3C[C@H]3O[C@@H](CC[C@@H]1O2)C[C@@H](C)C3=C", "note": "[Halichondrin C]", "values": [{"measurement": "stability in aqueous solution", "setting": "[5]", "result": "unstable in aqueous solution in comparison with Halichondrin B"}]}, {"smiles": "N.N.[Cl][Pt][Cl]", "note": "[Cisplatin, cisplatin, reference compound]", "values": [{"measurement": "ILS (%)", "setting": "[6]; single agent, Q7Dx3: cetuximab 5 mg/kg, cisplatin 5 mg/kg", "result": 0, "unit": "%"}, {"measurement": "ILS (%)", "setting": "[6]; with cetuximab 5 mg/kg, Q7Dx3: cisplatin 5 mg/kg", "result": 150, "unit": "%"}]}, {"smiles": "C=C1C[C@@H]2CC[C@@]34CC5O[C@H]6[C@@H](O3)[C@H]3O[C@H](CC[C@@H]3O[C@H]6C5O4)CC(=O)O[C@@H]3[C@@H](C)[C@@H]4O[C@@H]5C[C@]6(C[C@@H]7O[C@]8(C[C@H](C)[C@@H]9O[C@H]([C@@H](O)C[C@@H](O)CN)C[C@@H]9O8)C[C@H](C)[C@@H]7O6)O[C@@H]5C[C@@H]4O[C@H]3C[C@H]3O[C@@H](CC[C@@H]1O2)C[C@@H](C)C3=C", "note": "[Compound K-2]", "values": [{"measurement": "IC50", "setting": "[1]", "result": 0.461, "unit": "nM"}, {"measurement": "IC50", "setting": "[2]", "result": 0.07, "unit": "nM"}, {"measurement": "IC50", "setting": "[3]", "result": 0.341, "unit": "nM"}]}, {"smiles": "C=C1C[C@@H]2CC[C@@]34CC5O[C@H]6[C@@H](O3)[C@H]3O[C@H](CC[C@@H]3O[C@H]6C5O4)CC(=O)O[C@@H]3[C@@H](C)[C@@H]4O[C@@H]5C[C@]6(C[C@@H]7O[C@]8(C[C@H](C)[C@@H]9O[C@H]([C@@H](O)CCO)C[C@@H]9O8)C[C@H](C)[C@@H]7O6)O[C@@H]5C[C@@H]4O[C@H]3C[C@H]3O[C@@H](CC[C@@H]1O2)C[C@@H](C)C3=C", "note": "[Compound M-3]", "values": [{"measurement": "IC50", "setting": "[1]", "result": 0.0199, "unit": "nM"}, {"measurement": "IC50", "setting": "[2]", "result": 0.0101, "unit": "nM"}, {"measurement": "IC50", "setting": "[3]", "result": 0.0141, "unit": "nM"}]}]}
